The experiment concerns Plasmodium falciparum. Nature of the experiment: GSK_TCMDC: Inhibition of Plasmodium falciparum 3D7 in whole erythrocytes, using parasite LDH activity as an index of growth. The settings on record: Plasmodium falciparum, 3D7. The format is functional, organism-based.

The values that follow come from ChEMBL document CHEMBL1157539, “Thousands of chemical starting points for antimalarial lead identification” (Nature, 2010).

Molecules are shown by their SMILES.

With `COc1ccccc1/C=C/C(=O)N(C)C1CCN(CCCCCNC(=O)/C=C/c2ccc(Cl)c(Cl)c2)C1` (stereo not given), the XC50 was 867 nM.
`CCC1CCCCN1S(=O)(=O)c1ccc(NC(=O)c2cc(C)on2)cc1` (stereo not given) displayed an XC50 of 1240 nM.
`COc1cccc(C2CCN(CCN3CCC(CNC(=O)c4ccc(-c5ccc(C(F)(F)F)cc5)cc4)CC3)CC2)c1` returned an XC50 of 886 nM.
In turn, `CCCCn1c(C)c(C(=O)OCC)c2cc(OC(C)=O)c(Br)cc21` yielded an XC50 of 625 nM.
Regarding `COc1ccc2cc(-c3nc(-c4c(Cl)cccc4Cl)[nH]c3-c3ccnc(NCCCN4CCCCC4C)c3)ccc2c1` (stereo not given), the XC50 is 948 nM.
Under `OCC1CCN(Cc2ccc(-c3ccc(-c4nc5cc(F)ccc5[nH]4)cc3)cc2)CC1` stands 845 nM; under `c1cc(-c2ccc(CNCCCN3CCOCC3)cc2)cc(-c2nc3ccccc3[nH]2)c1`, 207 nM; under `Cc1ccc(Cc2c(N)nc3nc(N)nc(N)c3c2C)cc1`, 188 nM.
On to `O=C(Nc1ccccc1O)c1ccc(S(=O)(=O)c2ccc(Cl)cc2)cc1`, for which the XC50 was determined as 1350 nM.
On to `C=CCNC(CCCCC)c1ccc(OCCOc2ccc(C(CCCCC)NCC=C)cc2)cc1` (stereo not given), for which the XC50 is 567 nM.
In turn, `O=C(Nc1ccc(F)cc1)NC1CCN(c2ccnc3cc(Cl)ccc23)C1` (stereo not given) showed an XC50 of 218 nM.
`CCCc1cc(C(C)=O)ccc1OCCCON1C(=N)N=C(N)NC1(C)C`: the XC50 is 4.57 nM.
As to `CC(C)Sc1nc2c(c(=O)n1Cc1ccco1)C1(CCCCC1)Cc1ccccc1-2`, the XC50 is 251 nM.
Under `Cc1cccc2nc(-c3cccc(-c4ccc(NC(=O)C5CC(=O)Nc6ccccc65)cc4)c3)[nH]c12` (stereo not given) stands 685 nM; under `C=C[C@]1(C)C[C@@H](OC(=O)NC(=O)C2CCN(C(=O)CSc3ccccc3)CC2)[C@]2(C)[C@H](C)CC[C@]3(CCC(=O)[C@H]32)[C@@H](C)[C@@H]1O`, 1010 nM; under `COc1ccc(Nc2ncc3c(-c4ccc(NC(=O)c5cccc(C(F)(F)F)c5)cc4)c[nH]c3n2)cc1OC`, 1030 nM.
In the case of `Fc1ccc(CNc2ncc(-c3ccsc3)c(-c3nccs3)n2)cc1` it was 72.1 nM.
In turn, `CSc1ccc2nccc(Nc3ccc(Oc4ccccc4)cc3)c2c1` showed an XC50 of 871 nM.
For `Cc1cc(N[C@@H](Cc2ccccc2)C(=O)NCc2cccc(F)c2)nc(NCCc2ccc(F)cc2)n1`, the XC50 worked out at 649 nM.
`CN1CCN(Cc2nc(-c3ccc4c(Nc5ccc(F)c(O)c5)ccnc4c3)cs2)CC1` registered an XC50 of 171 nM.
`Nc1nc(N)c2c(ccc3c2ccn3CCCC(F)(F)F)n1`: the XC50 was found to be 98 nM.
In turn, `NCCCNc1nc(Nc2ccc(C(F)(F)F)cc2F)c2c(=O)[nH]ccc2n1` gave an XC50 of 1050 nM.
Molecule `C=CCc1cc(Cc2cnc(N)nc2N)c2ccc(C)nc2c1O` had an XC50 of 1040 nM.
Turning to `CN1c2ccc([N+](=O)[O-])cc2C(C)(C)C12C=Cc1cc(Br)cc([N+](=O)[O-])c1O2` (stereo not given), the XC50 came to 785 nM.
Molecule `COc1nc2c(CCN3CCC(NCc4ccc5c(c4)NCCO5)CC3)c(Cl)cnc2cc1F` displayed an XC50 of 179 nM.
For `Cn1nc(C(F)(F)F)c(-c2ccc(F)cc2)c1NC(=O)Nc1ccc(F)cc1`, the XC50 was 754 nM.
In turn, `CC(C)CNC(=O)CN1C(=O)C(c2ccccc2)(c2ccccc2)N=C1N` gave an XC50 of 815 nM.
`O=C1NC(=S)N/C1=C/C=C/c1ccc([N+](=O)[O-])o1` showed an XC50 of 1070 nM.
Under `CS(=O)(=O)n1c(CN2CCN(c3ncc(C(F)(F)F)cc3Cl)CC2)nc2ccccc21` stands 1060 nM; under `CC(C)(C)CC(C)(C)c1ccc(O)c(CNC2CCCCC2)c1`, 64.9 nM; under `Cc1cc(O)c(CN2CCN(Cc3cccs3)CC2)cc1C(C)C`, 716 nM.
Molecule `c1cc(CN2CCC(CCN3CCCCC3)CC2)cc(-c2csc(-c3nc4ccccc4[nH]3)c2)c1` had an XC50 of 142 nM.
Regarding `CCNC1=NC2=C(CC(C(C)(C)C)CC2)C2(CCC(C(C)(C)C)CC2)S1` (stereo not given), the XC50 worked out at 834 nM.
In the case of `CC(C)CNCc1cccc(-c2ccc(CN(C(=O)c3cccs3)C3CCN(Cc4ccccc4)CC3)cc2)c1` it was 1010 nM.
Regarding `CCCCc1ccc(-c2ccc(-c3c(C)[nH]c(C)c(Br)c3=O)cn2)cc1`, the XC50 was found to be 57.8 nM.
